Assay results taken from patent US12643867B2, “Compositions and uses thereof” (University of Virginia Patent Foundation, priority 2017, dated 2026).

Assays:
[1] = target: T1, M4K5 (Mitogen-activated protein kinase kinase kinase kinase 5) (Homo sapiens, UniProt Q9Y4K4); test: SILAC LC-MS ATP acyl phosphate probe competition, native kinases in HEK293T; format: binding; settings: ATP 1 mM, Ketanserin, Ritanserin 100 μM, RF001 1 mM; for SILAC ratio, M4K5 Lys1 probe-modified peptide: site Lys1; for SILAC ratio, M4K5 Lys2 probe-modified peptide: site Lys2
T1 construct: Native kinases; endogenous in cells; host or cells: HEK293T soluble proteome
T1 sequence (Q9Y4K4 whole entry): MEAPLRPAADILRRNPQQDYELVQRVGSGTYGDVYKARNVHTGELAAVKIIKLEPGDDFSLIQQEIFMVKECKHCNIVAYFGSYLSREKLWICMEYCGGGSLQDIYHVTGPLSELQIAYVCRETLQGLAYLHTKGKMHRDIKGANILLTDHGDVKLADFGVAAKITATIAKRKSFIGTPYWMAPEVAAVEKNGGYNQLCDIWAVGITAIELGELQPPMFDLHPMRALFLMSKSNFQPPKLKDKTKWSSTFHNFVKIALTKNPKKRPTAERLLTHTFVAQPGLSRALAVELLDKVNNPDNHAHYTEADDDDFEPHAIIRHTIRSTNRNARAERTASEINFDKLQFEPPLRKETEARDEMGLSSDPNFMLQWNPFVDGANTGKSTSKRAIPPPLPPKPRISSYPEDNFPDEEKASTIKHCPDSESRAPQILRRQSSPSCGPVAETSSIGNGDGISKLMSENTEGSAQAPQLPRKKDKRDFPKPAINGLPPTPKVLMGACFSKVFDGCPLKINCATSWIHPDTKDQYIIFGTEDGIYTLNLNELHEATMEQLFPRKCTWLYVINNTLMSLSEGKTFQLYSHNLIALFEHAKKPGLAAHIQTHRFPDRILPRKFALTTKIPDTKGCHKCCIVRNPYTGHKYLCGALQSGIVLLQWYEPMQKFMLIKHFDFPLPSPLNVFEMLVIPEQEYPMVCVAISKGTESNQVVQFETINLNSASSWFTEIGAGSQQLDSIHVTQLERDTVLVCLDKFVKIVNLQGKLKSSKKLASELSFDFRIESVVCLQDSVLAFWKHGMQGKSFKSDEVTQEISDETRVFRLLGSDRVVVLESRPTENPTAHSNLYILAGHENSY
Procedure, shortened: (§1)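 Light and heavy SILAC HEK293T proteomes (2 mg/ml in kinase buffer) were pre-treated with DMSO or compound (50× stock in DMSO) for 30 min at 25° C, then mixed 1:1, reduced, alkylated and digested with trypsin/Lys-C. Desthiobiotin-labelled peptides were avidin-enriched and analysed by LC-MS/MS on an Orbitrap, top-10 data-dependent acquisition.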

[2] = target: T2, MP2K3 (Dual specificity mitogen-activated protein kinase kinase 3) (Homo sapiens, UniProt P46734); test: as above; format: binding; settings: site Lys2; ATP 1 mM; Ketanserin, Ritanserin 100 μM; RF001 1 mM
T2 construct: Native kinases; endogenous in cells; host or cells: HEK293T soluble proteome
T2 sequence (P46734 1-347): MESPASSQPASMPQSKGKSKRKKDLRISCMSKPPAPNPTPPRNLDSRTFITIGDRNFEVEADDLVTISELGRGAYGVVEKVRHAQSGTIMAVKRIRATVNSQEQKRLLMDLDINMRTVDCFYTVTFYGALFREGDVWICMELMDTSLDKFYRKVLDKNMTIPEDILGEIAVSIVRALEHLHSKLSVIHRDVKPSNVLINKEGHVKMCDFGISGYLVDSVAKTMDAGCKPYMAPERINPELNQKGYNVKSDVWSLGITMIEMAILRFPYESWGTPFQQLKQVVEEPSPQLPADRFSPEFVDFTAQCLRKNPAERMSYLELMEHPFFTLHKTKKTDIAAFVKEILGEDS
Procedure, shortened: as §1

Q: With `O=C(c1ccc(F)cc1)C1CCN(CCn2c(=O)[nH]c3ccccc3c2=O)CC1` [Ketanserin] as the compound, how does the “SILAC ratio, M4K5 Lys1 probe-modified peptide” value [1] read?
A: The value was 1.3.

Q: What about the “SILAC ratio, M4K5 Lys2 probe-modified peptide” value [1] of the same compound?
A: Its value is 1.3.

Q: What about the “SILAC ratio, MP2K3 probe-modified peptide” value [2] of the same compound?
A: The value was 1.4.

Q: `Fc1ccc(C(=C2CCNCC2)c2ccc(F)cc2)cc1` [RF001, 4-(Bis(4-fluorophenyl)methylene) piperidine] was tested. Which “SILAC ratio, M4K5 Lys1 probe-modified peptide” value [1] did it give?
A: The value was 0.9.

Q: What about the “SILAC ratio, M4K5 Lys2 probe-modified peptide” value [1] of the same compound?
A: The value was 1.3.

Q: What about the “SILAC ratio, MP2K3 probe-modified peptide” value [2] of the same compound?
A: The value was 1.2.

Q: Which “SILAC ratio, M4K5 Lys1 probe-modified peptide” value [1] does the source give for `Cc1nc2sccn2c(=O)c1CCN1CCC(=C(c2ccc(F)cc2)c2ccc(F)cc2)CC1` [Ritanserin] here?
A: Its value is 2.4.

Q: What about the “SILAC ratio, M4K5 Lys2 probe-modified peptide” value [1] of the same compound?
A: Its value is 1.9.

Q: What about the “SILAC ratio, MP2K3 probe-modified peptide” value [2] of the same compound?
A: Its value is 1.7.
